Laboratory results from patent publication US11567085B2, “Photo-cleavable surfactants” (Wisconsin Alumni Research Foundation, priority 2018, dated 2023).

Legend:
cardiac tissue proteins = assay: Surfactant-aided protein extraction from insoluble cardiac tissue pellet, SDS-PAGE and protein assay; conditions: 0.5% surfactant in 25 mM NH4HCO3; SDS-PAGE and Bradford protein assay (FIG. 16)
Description: Data presented were based on three independent experiments (n=3). Error bars represent standard error of the mean.
Protein extraction from cardiac tissue. The frozen tissue samples (˜500 mg) were cut into small pieces and washed with PBS buffer containing protease inhibitors and reducing agent (5 mM DTT, 1 mM PMSF, 1× protease inhibitor cocktail). […] The homogenate was centrifuged at 211,750×g using Beckman Ultracentrifuge and a Ti-80 rotor for 1 h. The supernatant after the first HEPES extraction was removed and saved as “E1” extraction. The HEPES extraction was repeated on the resulting pellet and saved as “E2”. After the second HEPES extraction, the tissue pellet was suspended in 25 mM NH4HCO3 and evenly divided into smaller aliquots. In one aliquot, 25 mM NH4HCO3 buffer with no surfactant (NS) was used in a 1:1 ratio (homogenate:buffer) and labeled as “E3”. In the other aliquots, surfactants (1% in 25 mM NH4HCO3) were individually added to the other aliquots in a 1:1 ratio (homogenate:surfactant) and labeled as “E3” following incubation and centrifugation.

[1] = type: physicochemical
Description: Several degradation conditions were compared (i.e., organic vs. aqueous solutions in the presence or absence of acid and reducing agents) to determine the most favorable conditions (FIG. 11).
UV-Vis degradation. […] The samples were diluted to a final volume of 1 mL in H2O. A UV-Vis spectrum was taken from each sample with a Varian Cary 50 UV-Visible spectrophotometer (background correction, medium scan rate, 600-200 nm).

| degradation time upon UV irradiation [1] [s] | Compound | protein solubilization ability (cardiac tissue proteins) |
| --- | --- | --- |
|  | CCCCCCCCCCC(OC(=O)NCCCS(=O)(=O)[O-])c1ccco1.[Na+] (stereo not drawn) [PM] | drastically better protein solubilization ability |
| 30 to 150 | 4-hexylphenylazosulfonate |  |
|  | CCCCCCCCCCCC1(C)OCC(COCCCS(=O)(=O)[O-])O1.[Na+] (stereo not drawn) [RG] | drastically better protein solubilization ability |
